Reference: patent US20220177510A1, “DERIVATIVES OF GYLCERO-MANNO-HEPTOSE ADP FOR USE IN MODULATING IMMUNE RESPONSE” (priority 2019, published 2022)

Experiments:
[1] = molecular target: T1, ALPK1 (Homo sapiens, UniProt Q96QP1); assay: NF-kB promoter driven alkaline phosphatase reporter in HEK293 cells (pNPP assay); assay type: cell-based; settings: HEK293-NFkB-AP reporter cells treated 7 hours
T1 construct: endogenous in cells; host or cells: HEK293 (A1); HEK293 stably expressing an NF-kB-alkaline phosphatase reporter (A2)
T1 sequence (Q96QP1 whole entry): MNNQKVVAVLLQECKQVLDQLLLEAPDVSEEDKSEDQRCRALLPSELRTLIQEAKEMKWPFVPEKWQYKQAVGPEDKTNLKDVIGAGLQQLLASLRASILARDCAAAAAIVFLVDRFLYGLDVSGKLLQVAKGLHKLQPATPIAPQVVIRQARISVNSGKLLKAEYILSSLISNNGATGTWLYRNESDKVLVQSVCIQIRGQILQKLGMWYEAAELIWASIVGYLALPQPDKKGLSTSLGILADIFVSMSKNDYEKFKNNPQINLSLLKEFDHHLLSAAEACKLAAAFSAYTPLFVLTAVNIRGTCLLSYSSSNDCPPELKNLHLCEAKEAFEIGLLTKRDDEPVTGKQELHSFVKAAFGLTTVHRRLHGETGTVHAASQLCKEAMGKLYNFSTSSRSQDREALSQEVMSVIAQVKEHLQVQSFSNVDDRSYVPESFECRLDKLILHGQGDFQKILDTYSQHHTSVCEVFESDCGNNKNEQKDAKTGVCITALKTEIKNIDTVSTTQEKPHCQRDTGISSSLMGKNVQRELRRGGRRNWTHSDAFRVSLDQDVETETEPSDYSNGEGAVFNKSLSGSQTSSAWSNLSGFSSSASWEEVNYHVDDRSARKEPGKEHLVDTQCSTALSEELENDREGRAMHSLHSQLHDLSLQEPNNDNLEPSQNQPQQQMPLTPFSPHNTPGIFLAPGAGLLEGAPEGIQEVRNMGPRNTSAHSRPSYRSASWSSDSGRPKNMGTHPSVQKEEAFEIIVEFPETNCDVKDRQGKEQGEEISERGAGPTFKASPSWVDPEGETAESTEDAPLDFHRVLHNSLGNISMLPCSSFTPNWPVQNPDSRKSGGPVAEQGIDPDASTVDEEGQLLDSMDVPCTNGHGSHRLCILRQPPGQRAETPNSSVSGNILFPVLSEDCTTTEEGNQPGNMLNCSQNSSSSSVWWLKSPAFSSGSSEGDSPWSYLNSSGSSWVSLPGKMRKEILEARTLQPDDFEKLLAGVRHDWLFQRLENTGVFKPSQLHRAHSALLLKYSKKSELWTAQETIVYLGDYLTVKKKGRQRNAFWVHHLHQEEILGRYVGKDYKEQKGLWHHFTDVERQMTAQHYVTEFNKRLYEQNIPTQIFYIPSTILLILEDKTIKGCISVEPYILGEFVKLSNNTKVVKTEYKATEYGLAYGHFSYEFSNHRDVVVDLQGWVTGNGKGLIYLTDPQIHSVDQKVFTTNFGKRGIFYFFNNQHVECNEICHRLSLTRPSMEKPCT
Description: NF-kB activation was assayed using HEK293 cells stably expressing an NF-kB reporter construct comprising an NF-kB promoter driving expression of alkaline phosphatase (AP). In this system, activation of NF-kB promoter activity drives the expression of AP which is detected using a chromogenic substrate, para-nitrophenyl phosphate (pNPP).
To assess the ALPK1 agonist activity of test compounds, the HEK293 cells were seeded in 96-well plates and allowed to attach overnight. Cells were then exposed to graded concentrations of compounds A1, A2, A3, A4, A18, A26, A27, A28, and A30. Compound 28 was included as a reference. Following treatment, cell culture supernatants were collected and analyzed for alkaline phosphatase activity using the pNPP assay. The results are shown in FIGS. 7A-7B and Table 2B-C below. The EC50 for each compound was determined using GraphPad Prism.

[2] = molecular target: T1, ALPK1; assay: IL-8 secretion by HEK293 cells (IL-8 ELISA) as indication of ALPK1 activation; assay type: cell-based; settings: HEK293 cells treated 4 hours, FIG. 6, Table 2A
Description: HEK293 cells were treated with H1b-ADP derivatives (A1, A2, A3, and A4) or with Compound 28 for 4 hours followed by analysis of IL-8 secretion using an IL-8 enzyme linked immunoassay (ELISA). IL-8 secretion is an indication of ALPK1 activation. The EC50 of each compound was determined using GraphPad Prism.

SMILES | EC50 ([1]; FIG. 7B, Table 2C) [nM] | EC50 ([1]; FIG. 7A, Table 2B) [nM] | EC50 [2] [nM]
CC(=O)OC[C@H](F)[C@H]1O[C@@H](OP(=O)(O)OP(O)(=S)OC[C@H]2O[C@@H](c3coc4c(N)ncnc34)[C@H](O)[C@@H]2O)[C@@H](OC(C)=O)[C@@H](OC(C)=O)[C@@H]1OC(C)=O (stereo partly drawn) [Compound A28, (2S,3S,4S,5S,6S)-2-((S)-2-acetoxy-1-fluoroethyl)-6-(((((((2R,3S,4R,5S)-5-(4-aminofuro[3,2-d]pyrimidin-7-yl)-3,4-dihydroxytetrahydrofuran-2-yl)methoxy)(hydroxy)phosphorothioyl)oxy)(hydroxy)phosphoryl)oxy)tetrahydro-2H-pyran-3,4,5-triyl triacetate] | 3.9 |  | 
CC(=O)OC[C@H](F)[C@H]1O[C@@H](OP(=O)(O)OP(O)(=S)OC[C@H]2O[C@@H](n3ncc4c(N)ncnc43)[C@H](O)[C@@H]2O)[C@@H](OC(C)=O)[C@@H](OC(C)=O)[C@@H]1OC(C)=O (stereo partly drawn) [Compound A26, (2S,3S,4S,5S,6S)-2-((S)-2-acetoxy-1-fluoroethyl)-6-(((((((2R,3S,4R,5R)-5-(4-amino-1H-pyrazolo[3,4-d]pyrimidin-1-yl)-3,4-dihydroxytetrahydrofuran-2-yl)methoxy)(hydroxy)phosphorothioyl)oxy)(hydroxy)phosphoryl)oxy)tetrahydro-2H-pyran-3,4,5-triyl triacetate] | 10100 |  | 
CCCCCCCCCCCCCCCCCC(=O)OC[C@H](F)[C@H]1O[C@@H](OP(=O)(O)OP(O)(=S)OC[C@H]2O[C@@H](n3cnc4c(N)ncnc43)[C@H](O)[C@@H]2O)[C@@H](OC(C)=O)[C@@H](OC(C)=O)[C@@H]1OC(C)=O (stereo partly drawn) [Compound A1, (2S,3S,4S,5S,6S)-2-(((((((2R,3S,4R,5R)-5-(6-amino-9H-purin-9-yl)-3,4-dihydroxytetrahydrofuran-2-yl)methoxy)(hydroxy)phosphorothioyl)oxy)(hydroxy)phosphoryl)oxy)-6-((S)-1-fluoro-2-(stearoyloxy)ethyl)tetrahydro-2H-pyran-3,4,5-triyl triacetate] |  | 11 | 3.1
CCCCCCCCC(=O)OC[C@H](F)C1O[C@@H](OP(=O)(O)OP(O)(=S)OC[C@H]2O[C@@H](n3cnc4c(N)ncnc43)C(O)C2O)C(OC(C)=O)C(OC(C)=O)[C@@H]1OC(C)=O (stereo partly drawn) [Compound A4, (2S,3S,4S,5S,6S)-2-(((((((2R,3S,4R,5R)-5-(6-amino-9H-purin-9-yl)-3,4-dihydroxytetrahydrofuran-2-yl)methoxy)(hydroxy)phosphorothioyl)oxy)(hydroxy)phosphoryl)oxy)-6-((S)-1-fluoro-2-(nonanoyloxy)ethyl)tetrahydro-2H-pyran-3,4,5-triyl triacetate] |  | 19.1 | 19.2
CC(=O)OC[C@H](F)C1O[C@@H](OP(=O)(O)OP(O)(=S)OC[C@H]2O[C@@H](n3cnc4c(NC(=O)c5ccccc5)ncnc43)C(O)C2O)C(OC(C)=O)C(OC(C)=O)[C@@H]1OC(C)=O (stereo partly drawn) [Compound A27, (2S,3S,4S,5S,6S)-2-((S)-2-acetoxy-1-fluoroethyl)-6-(((((((2R,3S,4R,5R)-5-(6-benzamido-9H-purin-9-yl)-3,4-dihydroxytetrahydrofuran-2-yl)methoxy)(hydroxy)phosphorothioyl)oxy)(hydroxy)phosphoryl)oxy)tetrahydro-2H-pyran-3,4,5-triyl triacetate] | 37.8 |  | 
CC(=O)OC[C@H](F)[C@H]1O[C@@H](OP(=O)(O)OP(O)(=S)OC[C@H]2O[C@@H](c3csc(C(N)=O)c3N)[C@H](O)[C@@H]2O)[C@@H](OC(C)=O)[C@@H](OC(C)=O)[C@@H]1OC(C)=O (stereo partly drawn) [Compound A30, (2S,3S,4S,5S,6S)-2-((S)-2-acetoxy-1-fluoroethyl)-6-(((((((2R,3S,4R,5S)-5-(4-amino-5-carbamoylthiophen-3-yl)-3,4-dihydroxytetrahydrofuran-2-yl)methoxy)(hydroxy)phosphorothioyl)oxy)(hydroxy)phosphoryl)oxy)tetrahydro-2H-pyran-3,4,5-triyl triacetate] | 42.3 |  | 
CCCCCCCCCCCC(=O)OC[C@H](F)C1O[C@@H](OP(=O)(O)OP(O)(=S)OC[C@H]2O[C@@H](n3cnc4c(N)ncnc43)C(O)C2O)C(OC(C)=O)C(OC(C)=O)[C@@H]1OC(C)=O (stereo in doubt) [Compound A2, 2S,3S,4S,5S,6S)-2-(((((((2R,3S,4R,5R)-5-(6-amino-9H-purin-9-yl)-3,4-dihydroxytetrahydrofuran-2-yl)methoxy)(hydroxy)phosphorothioyl)oxy)(hydroxy)phosphoryl)oxy)-6-((S)-2-(dodecanoyloxy)-1-fluoroethyl)tetrahydro-2H-pyran-3,4,5-triyl triacetate] |  | 11.9 | 7.1
CCCCCCCCCCCCCC(=O)OC[C@H](F)C1O[C@@H](OP(=O)(O)OP(O)(=S)OC[C@H]2O[C@@H](n3cnc4c(N)ncnc43)C(O)C2O)C(OC(C)=O)C(OC(C)=O)[C@@H]1OC(C)=O (stereo partly drawn) [Compound A3, (2S,3S,4S,5S,6S)-2-(((((((2R,3S,4R,5R)-5-(6-amino-9H-purin-9-yl)-3,4-dihydroxytetrahydrofuran-2-yl)methoxy)(hydroxy)phosphorothioyl)oxy)(hydroxy)phosphoryl)oxy)-6-((S)-1-fluoro-2-(tetradecanoyloxy)ethyl)tetrahydro-2H-pyran-3,4,5-triyl triacetate] |  | 3.9 | 2
